Experimental data published in patent US20260324636A1, “COMPOSITION FOR PROVIDING PLANT WITH STRESS RESISTANCE” (KIRIN HOLDINGS KABUSHIKI KAISHA, priority 2022, published 2026).

What was measured:
Arabidopsis thaliana = assay: High-temperature stress resistance in pot culture (fresh weight of aboveground part), Example 2; format: in vivo, Arabidopsis thaliana (Col-0); conditions: 0.5 mM in tap water, 37° C. for 5 days
Method: The materials as used in Example 1 were used.
Jiffy-7 (42 mm diameter, Sakata Seed Corporation) was used as culture soil for pot culture. On Jiffy-7 prepared on the Disposable Tray DT-3 (AS ONE CORPORATION), a grain of Arabidopsis thaliana seeds was seeded and the plant was allowed to grow in an artificial climate chamber (Nippon Medical & Chemical Instruments Co., Ltd.) maintained at a temperature of 22° C. for a daily cycle of 16 hours light and 8 hours darkness.
On the third week after seeding, tap water (200 ml) containing 0.5 mM N-acetylglutamic acid was poured on the Disposable Tray. On the fourth week after seeding, the tray was transferred to an artificial climate chamber maintained at a temperature of 37° C. and subjected to the high-temperature treatment. When the tray was dried during the high-temperature treatment, tap water containing 0.5 mM N-acetylglutamic acid was added. The tray was removed from the artificial climate chamber 5 days after the initiation of the high-temperature treatment, and the weight of the aboveground part was measured.

HAC12 = HAC12 gene expression by real-time PCR, Example 15; format: in vivo; conditions: Arabidopsis thaliana; 0.1 mM in medium, 2 hours after application, 22° C.; read-out: HAC12 expression level, increase vs group not subjected to the treatment
Method: The materials as used in Example 14 were used.
A liquid medium containing a ½ Murashige and Skoog Plant Salt Mixture (Nacalai) and 1 (w/v) % sucrose (FUJIFILM Wako) was used as a growth medium.
Arabidopsis thaliana seeds were sterilized with the use of a Kitchen Haiter® liquid (Kao Corporation) diluted to one-half concentration with distilled water for 3 minutes, washed 3 times with sterile distilled water, and then incubated at 4° C. overnight. The growth medium was dispensed at 1 ml/well on a 12-well microplate (IWAKI), 5 grains of the seeds were inoculated in each well, and the plate was transferred to the incubator (TOMY) to initiate growing. The incubator was maintained at a temperature of 22° C. for a daily cycle of 16 hours light and 8 hours darkness.
N-acetylglutamic acid was applied to Arabidopsis thaliana 7 days after inoculation to the final concentration of 0.1 mM in the medium, followed by incubation for 2 hours or 6 hours. The incubator was maintained at a temperature of 22° C. for a daily cycle of 16 hours light and 8 hours darkness. After incubation, the samples were frozen with liquid nitrogen, and RNA was extracted using the RNeasy Plant Mini Kit […]. […]
Thereafter, the relative expression levels of the target genes upon N-acetylglutamic acid treatment were calculated by the ΔΔCt method using the Cp values obtained by real-time PCR.

hop = assay: Oxidation stress resistance against methyl viologen in hop leaves (leaf chlorosis, chlorophyll content), Example 10; format: in vivo, hop (variety: Hersbrucker); conditions: 1 mM, 5 μM methyl viologen, 22° C. 4 days
Method: A hop strain (the variety: Hersbrucker) was used as an experimental material. Hop seedlings grown in the field of Kirin Brewery Company, Limited in Iwate, Japan were used.
A Murashige and Skoog Plant Salt Mixture 2.2 g and glucose 20 g (FUJIFILM Wako) were dissolved in 1 l of pure water, and a pH was adjusted to 5.8. Thereafter, agar (8 g (Ina Food Industry Co., Ltd.) was dissolved and autoclaved (121° C., 15 minutes).
A Murashige and Skoog Plant Salt Mixture 2.2 g and glucose 20 g were dissolved in 1 l of pure water, a pH was adjusted to 5.8, and the resultant was autoclaved (121° C., 20 minutes).
Tissue-cultured seedlings required for evaluation of oxidation stress response of a hop were prepared in a laboratory. […]
Leaf chlorosis is observed in plants upon oxidation stress exposure. Thus, an extent of chlorosis was evaluated by measuring the content of the green pigment chlorophyll in leaves.
Plants in a well (3 leaves) was transferred to a 1.5-ml tube containing 1 ml of N,N-dimethylformamide and incubated at 4° C. in the dark for 1 day to extract the chlorophyll. The absorbance of the extract was measured at 647 nm and 664 nm, respectively, to calculate the chlorophyll content on a leaf fresh weight basis. The chlorophyll content was calculated in the same manner as in Example 1.

CC(=O)N[C@@H](CCC(=O)O)C(=O)O [N-acetylglutamic acid]
fresh weight of the aboveground part, increase relative to the control group (Arabidopsis thaliana): 1.3 times | fold induction at 100 µM (HAC12): 1.3 | leaf chlorosis in MV-treated group, compared with control group (hop): more suppressed | decrease in the chlorophyll content in the MV-treated groups, compared with the control group (hop; leaf fresh weight basis): suppressed
